Results from patent US20230365576A1, “BRM Targeting Compounds And Associated Methods Of Use” (Prelude Therapeutics Incorporated, priority 2022, published 2023).

How the values were obtained:
SMARCA2 = target: T1, SMARCA2 (Homo sapiens, UniProt P51531); experiment: SMARCA2 HiBiT degradation assay in HeLa cells; format: cell-based; details: 18 hours; for DC50: read-out: SMARCA2 IC50; for Dmax: HeLa
T1 construct: SMARCA2-HiBiT knock-in Hela monoclonal cell (CS302366); host or cells: HeLa (CRISPR HiBiT knock-in monoclonal line, heterozygous)
Procedure, shortened: (§1)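 Degradation measured as HiBiT luminescence (Nano-Glo lytic reagent) after 18 h compound exposure at 37° C. Cells were HeLa clones carrying heterozygous HiBiT tags on SMARCA2 or SMARCA4, 2500 per well; compounds at 3-fold serial dilution from 10 μM.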

SMARCA4 = target: T2, SMARCA4 (Homo sapiens, UniProt P51532); experiment: SMARCA4 HiBiT degradation assay in HeLa cells; format: cell-based; details: 18 hours; for Dmax: HeLa
T2 construct: SMARCA4-HiBiT knock-in Hela monoclonal cell (CS3023226) were purchased from Promega; host or cells: HeLa (CRISPR HiBiT knock-in monoclonal line, heterozygous)
Procedure, shortened: as §1

T1 sequence (P51531 whole entry): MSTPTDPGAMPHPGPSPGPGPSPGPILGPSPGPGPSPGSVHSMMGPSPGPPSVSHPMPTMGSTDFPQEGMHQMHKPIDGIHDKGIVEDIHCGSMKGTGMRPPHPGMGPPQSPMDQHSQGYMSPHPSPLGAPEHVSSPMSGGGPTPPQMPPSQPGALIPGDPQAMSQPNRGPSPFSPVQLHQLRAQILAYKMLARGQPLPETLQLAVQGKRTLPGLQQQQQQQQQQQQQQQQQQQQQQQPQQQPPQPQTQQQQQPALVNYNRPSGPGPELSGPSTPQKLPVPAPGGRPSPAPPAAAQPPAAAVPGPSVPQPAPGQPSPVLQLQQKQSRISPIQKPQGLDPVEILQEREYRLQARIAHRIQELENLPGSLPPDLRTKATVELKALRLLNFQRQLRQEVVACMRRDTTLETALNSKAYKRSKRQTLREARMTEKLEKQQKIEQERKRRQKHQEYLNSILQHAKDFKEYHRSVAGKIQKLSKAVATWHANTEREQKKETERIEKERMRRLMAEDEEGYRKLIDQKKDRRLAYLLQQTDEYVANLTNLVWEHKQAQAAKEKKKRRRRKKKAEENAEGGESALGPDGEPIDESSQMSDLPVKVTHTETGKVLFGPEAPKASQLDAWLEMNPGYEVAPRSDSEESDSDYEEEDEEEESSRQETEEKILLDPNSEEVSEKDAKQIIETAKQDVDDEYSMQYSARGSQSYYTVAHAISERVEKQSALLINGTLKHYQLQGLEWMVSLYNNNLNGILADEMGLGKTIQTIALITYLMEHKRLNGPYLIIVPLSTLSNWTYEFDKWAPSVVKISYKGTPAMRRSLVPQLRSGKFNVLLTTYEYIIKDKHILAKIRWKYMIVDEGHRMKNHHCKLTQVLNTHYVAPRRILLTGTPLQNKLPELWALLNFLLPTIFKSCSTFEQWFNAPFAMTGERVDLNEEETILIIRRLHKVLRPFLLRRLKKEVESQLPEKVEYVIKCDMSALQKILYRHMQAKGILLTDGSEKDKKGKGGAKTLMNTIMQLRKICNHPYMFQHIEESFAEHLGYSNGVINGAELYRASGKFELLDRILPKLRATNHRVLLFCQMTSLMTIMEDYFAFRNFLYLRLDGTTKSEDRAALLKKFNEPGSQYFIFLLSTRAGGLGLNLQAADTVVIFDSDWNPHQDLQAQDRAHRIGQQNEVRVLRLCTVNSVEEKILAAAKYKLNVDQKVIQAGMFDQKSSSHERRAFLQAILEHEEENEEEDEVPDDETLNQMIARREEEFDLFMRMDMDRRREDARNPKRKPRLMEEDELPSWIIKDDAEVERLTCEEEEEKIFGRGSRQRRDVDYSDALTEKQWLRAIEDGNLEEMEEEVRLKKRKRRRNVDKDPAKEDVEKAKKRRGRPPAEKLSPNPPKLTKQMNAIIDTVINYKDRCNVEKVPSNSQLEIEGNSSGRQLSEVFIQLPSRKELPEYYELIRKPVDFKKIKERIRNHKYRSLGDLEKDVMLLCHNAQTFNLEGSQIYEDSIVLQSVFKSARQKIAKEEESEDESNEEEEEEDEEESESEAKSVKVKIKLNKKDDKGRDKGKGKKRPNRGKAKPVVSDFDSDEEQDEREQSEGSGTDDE
T2 sequence (P51532 whole entry): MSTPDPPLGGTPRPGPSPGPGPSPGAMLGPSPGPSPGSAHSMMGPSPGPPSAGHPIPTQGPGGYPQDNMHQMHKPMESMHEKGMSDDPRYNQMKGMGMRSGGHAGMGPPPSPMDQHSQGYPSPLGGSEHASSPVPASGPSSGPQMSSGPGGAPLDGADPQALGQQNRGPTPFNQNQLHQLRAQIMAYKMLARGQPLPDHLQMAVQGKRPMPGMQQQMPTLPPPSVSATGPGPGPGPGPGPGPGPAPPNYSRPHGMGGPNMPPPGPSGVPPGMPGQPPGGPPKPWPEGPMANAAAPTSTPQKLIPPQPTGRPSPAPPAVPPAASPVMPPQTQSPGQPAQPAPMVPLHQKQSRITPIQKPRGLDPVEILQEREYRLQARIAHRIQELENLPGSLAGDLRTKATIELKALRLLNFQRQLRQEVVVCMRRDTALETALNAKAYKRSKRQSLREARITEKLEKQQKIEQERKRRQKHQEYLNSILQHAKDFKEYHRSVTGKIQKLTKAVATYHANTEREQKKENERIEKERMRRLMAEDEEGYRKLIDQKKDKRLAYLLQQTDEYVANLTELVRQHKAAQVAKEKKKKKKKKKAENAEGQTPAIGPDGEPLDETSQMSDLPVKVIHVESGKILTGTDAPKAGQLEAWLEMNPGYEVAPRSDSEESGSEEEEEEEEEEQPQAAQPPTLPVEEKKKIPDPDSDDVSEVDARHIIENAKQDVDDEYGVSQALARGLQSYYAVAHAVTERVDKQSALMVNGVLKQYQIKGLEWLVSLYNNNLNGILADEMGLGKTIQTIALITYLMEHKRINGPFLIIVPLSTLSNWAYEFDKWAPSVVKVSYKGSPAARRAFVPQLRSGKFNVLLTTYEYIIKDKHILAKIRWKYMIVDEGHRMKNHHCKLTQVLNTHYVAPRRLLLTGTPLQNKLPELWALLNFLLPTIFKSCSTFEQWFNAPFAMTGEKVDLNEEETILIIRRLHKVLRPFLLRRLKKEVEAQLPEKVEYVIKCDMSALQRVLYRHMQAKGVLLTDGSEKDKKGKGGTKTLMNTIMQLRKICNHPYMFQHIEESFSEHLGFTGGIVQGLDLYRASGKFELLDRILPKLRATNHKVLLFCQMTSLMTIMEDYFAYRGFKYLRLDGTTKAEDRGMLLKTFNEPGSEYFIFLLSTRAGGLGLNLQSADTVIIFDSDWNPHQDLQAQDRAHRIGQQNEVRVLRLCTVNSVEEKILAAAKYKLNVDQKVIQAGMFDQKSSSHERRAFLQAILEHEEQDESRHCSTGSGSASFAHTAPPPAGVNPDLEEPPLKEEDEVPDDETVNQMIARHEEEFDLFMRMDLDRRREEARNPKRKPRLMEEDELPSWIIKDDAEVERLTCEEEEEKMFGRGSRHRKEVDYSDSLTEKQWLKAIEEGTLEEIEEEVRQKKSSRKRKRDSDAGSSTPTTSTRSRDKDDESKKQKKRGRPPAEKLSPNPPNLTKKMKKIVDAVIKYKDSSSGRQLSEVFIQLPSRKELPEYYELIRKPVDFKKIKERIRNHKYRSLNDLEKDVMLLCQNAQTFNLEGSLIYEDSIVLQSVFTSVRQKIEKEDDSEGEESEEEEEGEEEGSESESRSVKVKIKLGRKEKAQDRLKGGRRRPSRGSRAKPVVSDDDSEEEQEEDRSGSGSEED

| SMILES | DC50 (SMARCA2) [nM] | Dmax (SMARCA2) [%] | DC50 (SMARCA4) [nM] | Dmax (SMARCA4) [%] | SMARCA4 DMax % (SMARCA4) | SMARCA2 DMax % (SMARCA2) |
| --- | --- | --- | --- | --- | --- | --- |
| C[C@@H]1CN(CC2CCN(c3ccc4c(c3)C(=O)N(C3CCC(=O)NC3=O)C4)CC2)C[C@H](C)N1C(=O)N1CCN2c3cc(-c4cccc(F)c4O)nnc3NCC2(C)C1 (single isomer, unassigned) [Example 11] | < 100 | > 75 | < 100 | – | B (B=50%<Dmax≤75%) | – |
| O=C1CCC(N2Cc3ccc(N4CCOC(CN5CC6C(C5)C6CN5CCN6c7cc(-c8cc(F)cc(F)c8O)nnc7NCC6C5)C4)cc3C2=O)C(=O)N1 [Example 49, 3-(6-(2-(((1R,5S,6s)-6-(((S)-2-(3,5-difluoro-2-hydroxyphenyl)-5,6,6a,7,9,10-hexahydro-8H-pyrazino[1′,2′:4,5]pyrazino[2,3-c]pyridazin-8-yl)methyl)-3-azabicyclo[3.1.0]hexan-3-yl)methyl)morpholino)-1-oxoisoindolin-2-yl)piperidine-2,6-dione] | < 100 | > 75 | < 100 | > 75 | – | – |
| C[C@@H]1CN(CC2CCN(c3ccc4c(c3)C(=O)N(C3CCC(=O)NC3=O)C4)CC2)C[C@H](C)N1C(=O)N1CCN2c3cc(-c4cccc(Cl)c4O)nnc3NCC2(C)C1 (stereo partly drawn) [Example 30, 3-(6-(4-(((3R,5S)-4-(2-(3-chloro-2-hydroxyphenyl)-6a-methyl-6,6a,7,8,9,10-hexahydro-5H-pyrazino[1′,2′:4,5]pyrazino[2,3-c]pyridazine-8-carbonyl)-3,5-dimethylpiperazin-1-yl)methyl)piperidin-1-yl)-1-oxoisoindolin-2-yl)piperidine-2,6-dione] | < 100 | > 75 | < 100 | 50 to 75 | – | – |
| C[C@@H]1CN(CC2CCN(c3ccc4c(c3)C(=O)N(C3CCC(=O)NC3=O)C4)CC2)C[C@@H](C)N1C(=O)N1CCN2c3cc(-c4cccc(Cl)c4O)nnc3NCC2(C)C1 (single isomer, unassigned) [Example 14] | < 100 | > 75 | < 100 | 50 to 75 | – | – |
| C[C@@H]1CN(CC2CCN(c3ccc4c(c3)C(=O)N([C@H]3CCC(=O)NC3=O)C4)CC2)C[C@H](C)N1C(=O)N1CCN2c3cc(-c4cc(F)cc(F)c4O)nnc3NC[C@H]2C1 [Example 17, (S)-3-(6-(4-(((3S,5R)-4-((S)-2-(3,5-difluoro-2-hydroxyphenyl)-6,6a,7,8,9,10-hexahydro-5H-pyrazino[1′,2′:4,5]pyrazino[2,3-c]pyridazine-8-carbonyl)-3,5-dimethylpiperazin-1-yl)methyl)piperidin-1-yl)-1-oxoisoindolin-2-yl)piperidine-2,6-dione] | < 100 | > 75 | < 100 | 50 to 75 | – | – |
| C[C@@H]1CN(CC2CCN(c3ccc4c(c3)C(=O)N([C@@H]3CCC(=O)NC3=O)C4)CC2)C[C@H](C)N1C(=O)N1CCN2c3cc(-c4cc(F)cc(F)c4O)nnc3NC[C@H]2C1 [Example 16, (R)-3-(6-(4-(((3S,5R)-4-((S)-2-(3,5-difluoro-2-hydroxyphenyl)-6,6a,7,8,9,10-hexahydro-5H-pyrazino[1′,2′:4,5]pyrazino[2,3-c]pyridazine-8-carbonyl)-3,5-dimethylpiperazin-1-yl)methyl)piperidin-1-yl)-1-oxoisoindolin-2-yl)piperidine-2,6-dione] | < 100 | > 75 | < 100 | < 50 | – | – |
| C[C@@H]1CN(CC2CCN(c3ccc4c(c3)C(=O)N(C3CCC(=O)NC3=O)C4)CC2)C[C@H](C)N1C(=O)N1CCN2c3cc(-c4cc(F)cc(F)c4O)nnc3NCC2(C)C1 (single isomer, unassigned) [Example 64] | < 100 | – | < 100 | – | – | – |
| C[C@@H]1CN(CC2CCN(c3ccc4c(c3)C(=O)N(C3CCC(=O)NC3=O)C4)CC2)C[C@H](C)N1C(=O)N1CCN2c3cc(-c4cccc(F)c4O)nnc3NC[C@H]2C1 (stereo partly drawn) [Example 1, 3-(6-(4-(((3R,5S)-4-((S)-2-(3-fluoro-2-hydroxyphenyl)-6,6a,7,8,9,10-hexahydro-5H-pyrazino[1′,2′:4,5]pyrazino[2,3-c]pyridazine-8-carbonyl)-3,5-dimethylpiperazin-1-yl)methyl)piperidin-1-yl)-1-oxoisoindolin-2-yl)piperidine-2,6-dione] | < 100 | > 75 | < 100 | < 50 | – | – |

Now from value to molecule:

| DC50 (SMARCA2) [nM] | Dmax (SMARCA2) [%] | DC50 (SMARCA4) [nM] | Dmax (SMARCA4) [%] | SMARCA4 DMax % (SMARCA4) | SMARCA2 DMax % (SMARCA2) | SMILES |
| --- | --- | --- | --- | --- | --- | --- |
| < 100 | > 75 | > 1000 | < 50 | – | – | C[C@@H]1CN(CC2CCN(c3ccc4c(c3)C(=O)N(C3CCC(=O)NC3=O)C4)CC2)C[C@H](C)N1C(=O)N1CCN2c3cc(-c4cccc(Cl)c4O)nnc3NCC2(C)C1 (single isomer, unassigned) [Example 92] |
| < 100 | > 75 | 100 to 1000 | < 50 | – | – | C[C@@H]1C[C@H](CN2CCN(c3ccc4c(c3)C(=O)N([C@H]3CCC(=O)NC3=O)C4)CC2)C[C@H](C)N1C(=O)N1CCN2c3cc(-c4cccc(F)c4O)nnc3NC[C@@]2(C(F)F)C1 [Example 71, (S)-3-(6-(4-(((2R,4S,6S)-1-((S)-6a-(difluoromethyl)-2-(3-fluoro-2-hydroxyphenyl)-6,6a,7,8,9,10-hexahydro-5H-pyrazino[1′,2′:4,5]pyrazino[2,3-c]pyridazine-8-carbonyl)-2,6-dimethylpiperidin-4-yl)methyl)piperazin-1-yl)-1-oxoisoindolin-2-yl)piperidine-2,6-dione] |
| < 100 | > 75 | < 100 | 50 to 75 | – | – | O=C1CC[C@H](N2Cc3ccc(N4CCC(CN5CCC(F)(C(=O)N6CCN7c8cc(-c9cc(F)cc(F)c9O)nnc8NC[C@]7(C(F)F)C6)CC5)CC4)cc3C2=O)C(=O)N1 [Example 105, (S)-3-(6-(4-((4-((R)-2-(3,5-difluoro-2-hydroxyphenyl)-6a-(difluoromethyl)-6,6a,7,8,9,10-hexahydro-5H-pyrazino[1′,2′:4,5]pyrazino[2,3-c]pyridazine-8-carbonyl)-4-fluoropiperidin-1-yl)methyl)piperidin-1-yl)-1-oxoisoindolin-2-yl)piperidine-2,6-dione] |
| < 100 | – | < 100 | – | – | – | CCC12CNc3nnc(-c4cc(F)cc(F)c4O)cc3N1CCN(C(=O)C1(F)CCN(CC3CCN(c4ccc5c(c4)C(=O)N([C@H]4CCC(=O)NC4=O)C5)CC3)CC1)C2 (single isomer, unassigned) [Example 110] |
| < 100 | – | > 1000 | – | C (C=Dmax<50%) | A (A=Dmax>75%) | CC12CNc3nnc(-c4cc(F)cc(F)c4O)cc3N1CCN(C(=O)C1(F)CCN(CC3CCN(c4ccc5c(c4)C(=O)N([C@H]4CCC(=O)NC4=O)C5)CC3)CC1)C2 (single isomer, unassigned) [Example 113] |
| < 100 | – | < 100 | – | B (B=50%<Dmax≤75%) | A (A=Dmax>75%) | CCC12CNc3nnc(-c4cccc(F)c4O)cc3N1CCN(C(=O)N1CCN(CC3CCN(c4ccc5c(c4)C(=O)N(C4CCC(=O)NC4=O)C5)CC3)CC1(C)C)C2 (single isomer, unassigned) [Example 80, 3-(6-(4-((4-(6a-ethyl-2-(3-fluoro-2-hydroxyphenyl)-6,6a,7,8,9,10-hexahydro-5H-pyrazino-[1′,2′:4,5]pyrazino[2,3-c]pyridazine-8-carbonyl)-3,3-dimethylpiperazin-1-yl)methyl)-piperidin-1-yl)-1-oxoisoindolin-2-yl)piperidine-2,6-dione] |
